Laboratory results taken from paper PMC11436758, “Computer-aided drug design to generate a unique antibiotic family” (Nature Communications, 2024).
Where “and” joins values, the source holds several entries; their conditions need not be identical. Equal entries are not always repeated.

What was measured:
[1] = molecular target: AcpS (Escherichia coli, UniProt P24224); experiment: AcpS activity against increasing concentration of CoA with and without DNM0547 (mode of inhibition); assay type: biochemical; conditions: Suppl Fig 2, [AcpS] 5 nM; for V(+Inhibitor): replicates
Text: AcpS was chosen as a potential new antibiotic target for several important reasons beyond its high level of conservation across bacterial species. […] We undertook a more in-depth characterization of AcpS inhibition using DNM0547 as the test compound for this antibiotic family. The computer-aided drug design strategy used positions DNM compounds in the active site of AcpS. If DNM0547 is binding to the active site of AcpS competitive inhibition against an AcpS substrate would be predicted.
The acpS gene was amplified from S. aureus and E. coli genomic DNA and inserted into a pET23b vector using standard recombinant DNA methodology such that the protein product would result in addition of a C-terminal 6x-His tag in frame with the AcpS open reading frames. The DNA sequences inserted in the vector were sequenced and found to be identical to the known E. coli and S. aureus acpS open reading frames. Recombinant His-Tagged AcpS expression was induced by IPTG addition and overnight culture. Cell lysate was obtained by sequential aspiration through 16, 18 and 21 G needles in a buffer of 50 mM Tris-HCl (pH 8.5), 10 mM MgCl2, 2 mM DTT, 5% glycerol, and further adjusted to pH 8.1 with MES. […] In a typical AcpS enzyme activity assay, 57 µM [^3H]acetyl-CoA, 2 µg apo-ACP, 10 mM MgCl2, 5 mM DTT, 50 mM Na phosphate (pH 7.0), and AcpS in a final volume of 10 µL were incubated at room temperature in a 1.5 mL microcentrifuge tube. At 5, 10, 15, and 20 min 2 µL of reaction were added to 750 µl 10% TCA on ice. Bovine serum albumin (BSA; 20 µl of a 25 mg/mL solution) was then added to facilitate precipitation of radiolabeled protein. The samples were centrifuged at 12,000 × g for 5 min. Supernatants were removed, and the pellets were rinsed twice with 750 µl of 10% trichloroacetic acid. Pellets were resuspended in 50 µl of formic acid and transferred to scintillation vials. 2 mL of scintillation fluid was added, and the amount of [^3H]-labeled holo-ACP formed was quantified by liquid scintillation counting. The enzymatic reaction proceeded in a linear manner depending on time (10–40 min) and enzyme concentration (1–5 nM). Routinely, each data point was determined at least by triplicate.
Supplementary Figure 2. […] AcpS enzyme activity was […]
determined versus using purified AcpS and increasing concentrations of CoA in the presence and absence of 8 µM DNM0547. Data are the mean values +/ - SD of three separate experiments performed in triplicate from three separate enzyme preparation. GraphPad Prism was used to determine V max and Km values.

[2] = tested on: MRSA (ATCC 33591); experiment: Rabbit ischemic ear wound model of infection by MRSA, topical treatment; assay type: in vivo, New Zealand White rabbits; conditions: for % wound closure / wound size (mean) / Wound size (mm2): Fig 2a; for Wound size (mm2): individual wounds
Experimental: New Zealand White rabbits from Charles River were employed for this study. Both male and female rabbits were used; sample size prevented disaggregation of data by sex. Investigators were blinded to group allocation, data collection, and data analysis. Food and water were given ad libidum and animals were acclimatized for 7 days with photoperiods of alternating 12 h light and dark at 21 °C in relative humidity of 40–50%. The formulation for delivery of DNM compounds was Glaxal base (WellSpring Pharmaceutical Canada Corp., Oakville, Canada). Formulation was performed by dissolving compound in Glaxal base to give final concentrations of 1% or 2% DNM compound (w/v). The analgesic (Buprenex 0.02 mg/kg sc) and anesthesia (isoflurane (0.5–5% with oxygen carrier 0.5–2 L/min) were used as required during procedures. An ischemia wound healing model was conducted surgically. Each wound was inoculated with 50 μl of 2 × 10^7 CFU/mL MRSA (ATCC #33591) and dressed. After 1 day, wounds were treated with either 50 μl control cream containing vehicle or 50 μl cream containing compound daily. Wounds were assessed and observations recorded using the Draize scoring system. Digital photographs of each wound were obtained and documented.

[3] = Dermal pharmacokinetics, serum concentration after topical application; assay type: in vivo, Sprague Dawley rats
Experimental: We determined that the maximum concentration present in serum was 1.02 μg/mL at 7.0 h after application with a time½ of 8.7 h. By 24 h the concentration of DNM0547 had decreased to 0.06 μg/mL and by 48 h was 0.03 μg/mL (Supplementary Fig. 8).
Rat PK. […]
Supplementary Figure 8. Dermal PK of DNM0547. a, 2% DNM0547 was applied to shaved skin of Sprague Dawley rats and DNM0547 concentration in serum was determined over time (n=5). b, PK parameters for DNM0547 in serum. CV, coefficient variation was determined using Graphpad Prism.
(1 picture or pasted object on this page, not shown here)

[4] = tested on: Primary Skin Fibroblasts cells; experiment: Cell culture toxicity, Alamar Blue HS fluorescence; assay type: cell-based; conditions: Suppl Fig 9, Primary Skin Fibroblasts cells
[5] = 2% on shaved skin, serum, mean, n=5

AcpS, sequence (P24224 2-126): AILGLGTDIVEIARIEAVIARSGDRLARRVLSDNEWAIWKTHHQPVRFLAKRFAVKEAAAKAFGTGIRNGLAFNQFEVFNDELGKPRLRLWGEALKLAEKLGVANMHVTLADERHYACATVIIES

CC(C)c1cc(Cl)ccc1-c1cc(-c2nnn[nH]2)c(-c2ccc(Cl)cc2C(C)C)s1 [DNM0547]
V(+Inhibitor) Mean ([1]; Acetyl CoA 0.06 mM): 20.55 nM/min | V(+Inhibitor) ([1]; Acetyl CoA 0.06 mM): 19.96 nM/min and 23.46 nM/min and 18.23 nM/min | V(+Inhibitor) Mean ([1]; Acetyl CoA 0.24 mM): 101.48 nM/min | V(+Inhibitor) ([1]; Acetyl CoA 0.24 mM): 97.72 nM/min and 105.12 nM/min and 101.61 nM/min | V(+Inhibitor) Mean ([1]; Acetyl CoA 0.48 mM): 125.64 nM/min | V(+Inhibitor) ([1]; Acetyl CoA 0.48 mM): 122.32 nM/min and 124.81 nM/min and 129.79 nM/min | V(+Inhibitor) Mean ([1]; Acetyl CoA […]): 57.60 nM/min | % wound closure ([2]; Day 1): 0% | wound size (mean) ([2]; Day 1): 30.44 mm2 | % wound closure ([2]; Day 3): 2.62% | wound size (mean) ([2]; Day 3): 29.642 mm2 | % wound closure ([2]; Day 6): 5.42% | wound size (mean) ([2]; Day 6): 28.797 mm2 | % wound closure ([2]; Day 9): 32.45% | wound size (mean) ([2]; Day 9): 20.563 mm2 | % wound closure ([2]; Day 12): 53.18% | wound size (mean) ([2]; Day 12): 14.254 mm2 | % wound closure ([2]; Day 15): 73.94% | wound size (mean) ([2]; Day 15): 7.93 mm2 | % wound closure ([2]; Day 18): 87.25% | wound size (mean) ([2]; Day 18): 3.88 mm2 | % wound closure ([2]; Day 21): 97.93% | wound size (mean) ([2]; Day 21): 0.636 mm2 | Wound size (mm2) ([2]; Day 1): 29.51 mm2 and 29.83 mm2 and 28.32 mm2 and 27.53 mm2 and 32.52 mm2 and 34.03 mm2 and 26.69 mm2 and 25.2 mm2 and 36.13 mm2 and 34.64 mm2 | Wound size (mm2) ([2]; Day 3): 31.06 mm2 and 29.08 mm2 and 27.25 mm2 and 24.3 mm2 and 31.24 mm2 and 33.16 mm2 and 27.53 mm2 and 25.7 mm2 and 33.48 mm2 and 33.62 mm2 | Wound size (mm2) ([2]; Day 6): 28.85 mm2 and 31.18 mm2 and 26.33 mm2 and 24.01 mm2 and 30.73 mm2 and 32.69 mm2 and 26.4 mm2 and 21.93 mm2 and 33.19 mm2 and 32.66 mm2 | Wound size (mm2) ([2]; Day 9): 23.09 mm2 and 21.11 mm2 and 22.61 mm2 and 20.99 mm2 and 19.44 mm2 | Wound size (mm2) ([2]; Day 15): 10.17 mm2 and 8.72 mm2 and 14.95 mm2 and 20.1 mm2 and 0.9 mm2 and 0.08 mm2 and 1.02 mm2 and 4 mm2 and 10.8 mm2 and 8.56 mm2 | Wound size (mm2) ([2]; Day 18): 8.29 mm2 and 0.93 mm2 and 7.78 mm2 and 10.81 mm2 and 0.41 mm2 and 0 mm2 and 0.53 mm2 and 2.2 mm2 and 3.09 mm2 and 4.76 mm2 | Wound size (mm2) ([2]; Day 21): 0 mm2 (8×) and 5.12 mm2 and 1.24 mm2 | reduction in bacterial survival as compared to vehicle control ([2]; quantitative microbiology at day 14, topical): > 99% | bacteria in the wound (CFUs per gram of tissue at end of study) ([2]; topical 2%): effectively eliminated bacteria from the wound | day of complete wound closure ([2]; topical 2%): ≤ 21 days | wound closure ([2]; topical for 14 days, versus vehicle control): significantly improved wound closure | maximum concentration present in serum ([3]; 2% applied topically): 1.02 µg/mL | Concmax [3, 5]: 1020 ng/mL | Time1/2 [3, 5]: 8.78 h and 8.7 h | Timemax [3, 5]: 7.00 h and 7.0 h | concentration at 6 h ([3]; Sprague Dawley, rat, in vivo, 2 %, Suppl Fig 8, Hour 6, individual animals, read-out: DNM0547 conc): 261 ng/mL | concentration at 12 h ([3]; Sprague Dawley, rat, in vivo, 2 %, Suppl Fig 8, Hour 12, individual animals, read-out: DNM0547 conc): 386 ng/mL | Tmax ([3]; Sprague Dawley, rat, serum, topical or ocular, 2% applied topically, read-out: time of maximum serum concentration after application): 7 h | concentration at 24 h ([3]; Sprague Dawley, rat, serum, topical, 2 %, 2% applied topically, 24 h): 60 ng/mL | concentration at 48 h ([3]; Sprague Dawley, rat, serum, topical, 2 %, 2% applied topically, 48 h): 30 ng/mL | DNM0547 conc ([3]; Suppl Fig 8, Hour 3, individual animals): 387 ng/mL and 281 ng/mL and 713 ng/mL and 1147 ng/mL and 236 ng/mL and 356 ng/mL | DNM0547 conc ([3]; Suppl Fig 8, Hour 6, individual animals): 449 ng/mL and 1172 ng/mL and 560 ng/mL and 656 ng/mL and 1620 ng/mL | DNM0547 conc ([3]; Suppl Fig 8, Hour 9, individual animals): 623 ng/mL and 414 ng/mL and 681 ng/mL and 201 ng/mL and 177 ng/mL and 767 ng/mL | DNM0547 conc ([3]; Suppl Fig 8, Hour 12, individual animals): 477 ng/mL and 879 ng/mL and 564 ng/mL and 277 ng/mL and 158 ng/mL | DNM0547 conc ([3]; Suppl Fig 8, Hour 24, individual animals): 65 ng/mL and 33 ng/mL and 92 ng/mL and 38 ng/mL and 45 ng/mL and 60 ng/mL | DNM0547 conc ([3]; Suppl Fig 8, Hour 48, individual animals): 46 ng/mL and 21 ng/mL and 55 ng/mL and 17 ng/mL and 16 ng/mL and 14 ng/mL | Fluorescence (FI) ([4]; Conc. 2 ng/ml): 921 FI and 814 FI and 995 FI | Fluorescence (FI) ([4]; Conc. 100 ng/ml): 911 FI and 909 FI and 816 FI and 747 FI | Fluorescence (FI) ([4]; Conc. 2500 ng/ml): 895 FI and 904 FI and 819 FI and 790 FI | Fluorescence (FI) ([4]; Conc. 5000 ng/ml): 907 FI and 820 FI and 922 FI and 909 FI | Fluorescence (FI) ([4]; Conc. 20000 ng/ml): 577 FI and 548 FI and 542 FI and 552 FI | Fluorescence (FI) ([4]; Conc. 40000 ng/ml): 62 FI and 57 FI and 54 FI | Fluorescence (FI) ([4]; Conc. 100000 ng/ml): 7 FI and 5 FI
